Assay results reported in patent EP2716637A1, “MANGIFERIN AGLYCONE CRYSTAL FORM I AND PREPARATION METHOD THEREOF” (Kunming Pharmaceutical Corp., priority 2011, dated 2012).
Where two headings read alike, the source gives them in different places.

What was measured:
[1] = Stability of solutions in alkaline phosphate buffer, content by HPLC; type: physicochemical; conditions: for remaining at 2 h / remaining at 4 h / remaining at 6 h / remaining at 8 h / remaining at 12 h: phosphate buffer, read-out: content of mangiferin aglycone; for remaining at 2 h: standing time 2h; for remaining at 4 h: standing time 4h; for remaining at 6 h: standing time 6h; for remaining at 8 h: standing time 8h; for remaining at 12 h: standing time 12h
Procedure: Appropriate amounts of mangiferin aglycone crystal form I and mangiferin aglycone were taken respectively, and phosphate buffer of pH 8.0, pH 9.0 and pH 10.0 were added respectively, metered to 100 ml, and were allowed to stand at 37°C, and samples were taken at 2, 4, 6, 8 and 12 hours respectively, and the content of mangiferin aglycone were measured by HPLC method. Stability of solution of mangiferin aglycone crystal form I

[2] = Blood concentration after oral (intragastric) administration to Beagle dogs; type: in vivo
Procedure: Solid powder of mangiferin aglycone crystal form I and commercially available mangiferin aglycone (reference substance of mangiferin aglycone, purchased from Sigma Corporation, Lot No.: 8420-201002) were administered to Beagle dogs intragastrically respectively. The dosage of administration was 6mg/kg, and arterial blood of the dogs was drawn at different time points after administration to determine the content of mangiferin aglycone (See Table 4 and Figure 6). Table 4. Comparison of blood concentrations at different time points after mangiferin aglycone samples were administered orally to Beagle dogs

[3] = Active destructing test (stability) with HPLC analysis; type: physicochemical
Procedure: Active destructing test of mangiferin aglycone crystal form I: high purity mangiferin aglycone obtained in the same batch was respectively subjected to the following treatments: • (1) Destruction by strong acid: 0.5 mg sample was precisely weighed in a 50 ml measuring flask, and 1 ml of 0.1 mol/L hydrochloric acid aqueous solution was added, mixed evenly, and was allowed to stand for 48 hours at 20~30°C; • (2) Destruction by strong base: 0.5 mg sample was precisely weighed in a 50 ml measuring flask, and 1 ml of 0.1 mol/L sodium hydroxide aqueous solution was added, mixed evenly, and was allowed to stand for 48 hours at 20~30°C; • (3) Destruction by strong oxidant: 0.5 mg sample was precisely weighed in a 50 ml measuring flask, and 1 ml of 10% aqueous solution of hydrogen peroxide (H2O2) was added, mixed evenly, and was allowed to stand for 48 hours at 20~30°C; • (4) Destruction by high temperature: 0.5 mg sample was precisely weighed in a 50 ml measuring flask, and was allowed to stand for 48 hours at 100°C; • (5) Destruction by strong light: 0.5 mg sample was precisely weighed in a 50 ml measuring flask, and was allowed to stand for 240 hours under strong light condition of 4500±500 lux. The above-mentioned testing samples were taken out at specified time points, and methanol was added to dissolve and diluted the sample to the scale mark, shook well, then […] samples were analyzed by HPLC.
Stability test of mangiferin aglycone crystal form I

[4] = pH 8, phosphate buffer pH8, 37°C
[5] = pH 9, phosphate buffer pH9, 37°C
[6] = pH 10, phosphate buffer pH10, 37°C
[7] = destructing by high temperature: 48 hours at 100°C
[8] = destructing by strong acid: 0.1 mol/L hydrochloric acid, 48 hours at 20~30°C
[9] = destructing by strong base: 0.1 mol/L sodium hydroxide, 48 hours at 20~30°C
[10] = destructing by strong light: 240 hours at 4500±500 lux
[11] = destructing by strong oxidant: 10% hydrogen peroxide, 48 hours at 20~30°C

O=c1c2cc(O)c(O)cc2oc2cc(O)cc(O)c12 [mangiferin aglycone crystal form I, 1,3,6,7-tetrahydroxyxanthone]
stability of solution ([1]; different alkaline phosphate buffer solutions, compared with mangiferin aglycone): better | remaining at 2 h [1, 4]: 98.6% | remaining at 4 h [1, 4]: 98.4% | remaining at 6 h [1, 4]: 98.3% | remaining at 8 h [1, 4]: 98.2% | remaining at 12 h [1, 4]: 97.5% | remaining at 2 h [1, 5]: 98.5% | remaining at 4 h [1, 5]: 98.2% | remaining at 6 h [1, 5]: 98% | remaining at 8 h [1, 5]: 97.8% | remaining at 12 h [1, 5]: 97.2% | remaining at 2 h [1, 6]: 97.2% | remaining at 4 h [1, 6]: 97.4% | remaining at 6 h [1, 6]: 97% | remaining at 8 h [1, 6]: 96.3% | remaining at 12 h [1, 6]: 95% | concentration at 0.25 h ([2]; dog, serum, po, 6 mg/kg, intragastrically, 6mg/kg, solid powder, 0.25 hr, read-out: Mangiferin aglycone concentration in serum): 721 nM | concentration at 0.5 h ([2]; dog, serum, po, 6 mg/kg, intragastrically, 6mg/kg, solid powder, 0.5 hr, read-out: Mangiferin aglycone concentration in serum): 470 nM | concentration at 0.75 h ([2]; dog, serum, po, 6 mg/kg, intragastrically, 6mg/kg, solid powder, 0.75 hr, read-out: Mangiferin aglycone concentration in serum): 601 nM | concentration at 1 h ([2]; dog, serum, po, 6 mg/kg, intragastrically, 6mg/kg, solid powder, 1 hr, read-out: Mangiferin aglycone concentration in serum): 387 nM | concentration at 1.5 h ([2]; dog, serum, po, 6 mg/kg, intragastrically, 6mg/kg, solid powder, 1.5 hr, read-out: Mangiferin aglycone concentration in serum): 163 nM | concentration at 2 h ([2]; dog, serum, po, 6 mg/kg, intragastrically, 6mg/kg, solid powder, 2 hr, read-out: Mangiferin aglycone concentration in serum): 158 nM | concentration at 3 h ([2]; dog, serum, po, 6 mg/kg, intragastrically, 6mg/kg, solid powder, 3 hr, read-out: Mangiferin aglycone concentration in serum): 119 nM | concentration at 4 h ([2]; dog, serum, po, 6 mg/kg, intragastrically, 6mg/kg, solid powder, 4 hr, read-out: Mangiferin aglycone concentration in serum): 96 nM | concentration at 6 h ([2]; dog, serum, po, 6 mg/kg, intragastrically, 6mg/kg, solid powder, 6 hr, read-out: Mangiferin aglycone concentration in serum): 84.4 nM | concentration at 8 h ([2]; dog, serum, po, 6 mg/kg, intragastrically, 6mg/kg, solid powder, 8 hr, read-out: Mangiferin aglycone concentration in serum): 80.8 nM | oral bioavailability ([2]; same oral dosage, compared with commercially available mangiferin aglycone): higher | stability to light, moisture, heat ([3]; conclusion from the active destructing test): stable | peak area of mangiferin aglycone [3, 7]: 233 | situations of other degradation products [3, 7]: No new peak for degradation product was found | peak area of mangiferin aglycone [3, 8]: 234 | situations of other degradation products [3, 8]: No new peak for degradation product was found | peak area of mangiferin aglycone [3, 9]: 0 | situations of other degradation products [3, 9]: UV shift occurred, and there were many peaks for degradation products | peak area of mangiferin aglycone [3, 10]: 234 | situations of other degradation products [3, 10]: No peak for degradation product was found | peak area of mangiferin aglycone [3, 11]: 215 | situations of other degradation products [3, 11]: One new degradation product was found | peak area of mangiferin aglycone ([3]; undestructed (baseline sample)): 234 | situations of other degradation products ([3]; undestructed (baseline sample)): No new peak for degradation product was found
